In publication PMC3776562 (Journal of the American Chemical Society, 2013):

What was measured:
[1] = target: T1, Mcl-1 (Mus musculus, UniProt P97287); test: Ionic strength dependence of association rate constant (fit to eq 4); assay type: binding
T1 construct: with 151 N-terminal residues and 23 C-terminal residues removed; hexahistidine tag with thrombin cleavage site (N, cleaved yes); made in house; host or cells: Escherichia coli C41 (DE3)
Procedure: Unless otherwise stated, experiments were carried out in 50 mM sodium phosphate, pH 7.0. For the ionic strength dependence of association protein and peptide were exchanged to the low ionic strength 10 mM MOPS, pH 7.0, buffer (I = 0.004 M) and then ionic strength was controlled using [NaCl]. NaOH was titrated to maintain neutral pH upon addition of NaCl.
Association kinetics were monitored by following the change in intrinsic fluorescence on an SX18 or SX20 stopped-flow spectrometer (Applied Photophysics). All PUMA solutions were incubated at 25 °C for 30 min before use to allow for dissociation of oligomers. Because of mixing artifacts, data collected before the first 5 ms were removed before fitting. Proteins were mixed at near equal (1–0.25 μM) concentrations. Association kinetics were analyzed using eq 3([51]) that describes irreversible association of two proteins at initial concentrations [A]0 and [B]0: [drawing 3] 3 where F is fluorescence, F0 the initial fluorescence, ΔF is the fluorescence amplitude of the reaction, [A]0 is the initial concentration of one protein, [B]0 the other, x = [B]0/[A]0, k+ is the association rate constant, and t is time. Where repeat measurements were made, standard errors are shown as error bars. Errors were propagated using standard equations. […]

[2] = target: T1, Mcl-1; test: Circular dichroism of 1:1 complex with Mcl-1; assay type: binding; details: CD
Excerpt: (§1) CD scans were taken in an Applied Photophysics Chirascan, using 10 to 2 mm path length cuvettes. Percentage helicity calculated using the mean residue ellipticity at 222 nm.[24]

[3] = target: T1, Mcl-1; test: Urea dependence of association rate constant; assay type: binding
Excerpt: Urea is a denaturing cosolvent used in protein folding studies to energetically disfavor structured states. […] However, increasing urea concentrations also makes solutions more viscous. […] Further, the natural log of k+ against concentration of urea is linear, with a gradient of m = 0.55 (±0.02) M^–1 (Figure 3D).
(§2) Association kinetics were monitored by following the change in intrinsic fluorescence on an SX18 or SX20 stopped-flow spectrometer (Applied Photophysics). All PUMA solutions were incubated at 25 °C for 30 min before use to allow for dissociation of oligomers. Because of mixing artifacts, data collected before the first 5 ms were removed before fitting. Proteins were mixed at near equal (1–0.25 μM) concentrations. Association kinetics were analyzed using eq 3([51]) that describes irreversible association of two proteins at initial concentrations [A]0 and [B]0: [drawing 3] 3 where F is fluorescence, F0 the initial fluorescence, ΔF is the fluorescence amplitude of the reaction, [A]0 is the initial concentration of one protein, [B]0 the other, x = [B]0/[A]0, k+ is the association rate constant, and t is time. Where repeat measurements were made, standard errors are shown as error bars. Errors were propagated using standard equations.

[4] = PUMA peptide oligomerization (CD, size-exclusion chromatography, SDS-PAGE); assay type: physicochemical
Excerpt: as §1
Figure S3. PUMA peptide undergoes reversible oligomerization to an α-helical structure. (a) The Circular dichroism spectra of the PUMA peptide becomes more α-helical at higher concentrations, consistent with the formation of an α-helical oligomer.
(b) Oligomers are visible on denaturing SDS-PAGE gel of PUMA peptide at ~10-100 µM concentrations. White numbers refer to elution volumes from FPLC trace (c). (c) […]
PUMA oligomers (i), for comparison a trace for a similar size monomeric peptide is […]
-200 Monomeric BH3 peptide
(1 picture or pasted object on this page, not shown here)

[5] = target: T1, Mcl-1; test: Viscosity dependence of association rate constant (glucose); assay type: binding; details: glucose as viscogen; relative rate constant vs relative viscosity
Procedure: We measured k+ in varying concentrations of the small-molecule viscogen glucose and the observed k+ did indeed match the predicted rate constant (k0η0/η) (Figure 2B) and produce the standard viscosity plot[37] (k0/k+ vs η/η0) with the expected slope for a ‘diffusion-limited’ reaction, ∼1 (Figure 2C).
as §2

[6] = Intrinsic tryptophan fluorescence emission spectra; assay type: physicochemical; details: excitation at 280 nm; unbound
Procedure: (§3) Intrinsic tryptophan fluorescence was also used to probe the structural changes in these proteins upon association.
(§4) Figure S4. Fluorescence spectra of Mcl-1 and PUMA peptide show Mcl-1 is folded, PUMA is unfolded and binding occurs. […]
(§5) fluorescence spectrum characteristic of buried tryptophans whereas PUMA (blue) […]
(§6) An increase in fluorescence is seen upon mixing 1 µM: 1 µM of Mcl-1 and PUMA peptide. 1:1 complex (black solid line) […]
(§7) a greater signal than the spectrum predicted for no interaction (dashed line), which is the sum of the PUMA alone (blue) and Mcl-1 alone (magenta) spectra.

[7] = target: T1, Mcl-1; test: Stopped-flow fluorescence association kinetics of PUMA constructs with Mcl-1; assay type: binding; details: chemical denaturants, lowering total protein concentration, altering temperature
Procedure: The synthetic genes for truncated mouse Mcl-1 (UniProt P97287) with 151 N-terminal residues and 23 C-terminal residues removed (Figure S2C) and GB1-PUMA (Figure S2D) were obtained from Genscript. The genes were inserted into a modified version of the pRSET A vector that encodes an N-terminal hexahistidine tag with a thrombin cleavage site between the tag and the protein. Due to the cleavage of thrombin, a GS is added at the N-termini of Mcl-1. Protein expression was carried out in Escherichia coli C41 (DE3) grown in LB media at 37 °C. […] Identity was confirmed using mass spectrometry, the concentration of GB1-PUMA was determined by the method of Gill von Hippel,[36] and the concentration of Mcl-1 was determined using amino acid analysis.
Mouse PUMA peptide, residues 128–161 (Uniprot Q99ML1) with the M144I mutation used in the NMR structure 2ROC[26], together with N-terminal acetylation and C-terminal amidation, was synthesized by Selleck Chemicals. […] Peptide concentration was determined using amino acid analysis and identity confirmed using mass spectrometry. […]
Association kinetics were monitored by following the change in intrinsic fluorescence on an SX18 or SX20 stopped-flow spectrometer (Applied Photophysics). […] Association kinetics were analyzed using eq 3([51]) that describes irreversible association of two proteins at initial concentrations [A]0 and [B]0: [drawing 3] […]

[8] = test system: folded Bcl-2 members; details: cited from earlier work
Excerpt: The binding of BH3 regions to folded Bcl-2 family members is, due to their important physiological role and the large number of homologues, one of the most heavily studied coupled folding and binding reactions, particularly with respect to equilibrium binding constants obtained and structures solved.[21],[29] BH3 peptides have potential therapeutic value and have been the focus for the design of peptide-based mimics, including hydrocarbon staples,[42] α/β-peptides,[43] miniature proteins[44] and photoswitchable peptides.[45] To understand the general principles of binding, knowledge of kinetic ...

[9] = target: T1, Mcl-1; test: Fluorescence change on complex formation with Mcl-1; details: binding to Mcl-1; intrinsic tryptophan fluorescence
Procedure: as §3, §4, §5, §6, §7

[10] = target: T1, Mcl-1; test: Temperature dependence of association rate constant; assay type: binding; details: stopped-flow fluorescence
Procedure: as §2

[11] = Circular dichroism, unbound PUMA helicity; assay type: physicochemical; details: CD
Procedure: as §1
Figure S9. Changes in helicity of PUMA peptide with solvent and temperature.
Due to the oligomerization of the PUMA peptide circular dichroism (CD) was recorded at the low concentration of 1 µM with a 10 mm pathlength cuvette to maximize signal.
Errors due to buffer subtraction and high absorbances prevent quantitative analysis of these spectra. However, each individual figure was recorded on the same day so qualitative conclusions can be drawn. (a) The helicity of the PUMA peptide is highly temperature dependent, with lower temperatures favoring helical conformations. (b) Increasing concentration of the denaturant urea results in the disfavoring of helical […]
significant change in CD signal.

[12] = target: truncated mouse Mcl-1 (induced myeloid leukemia cell differentiation protein), 151 N-terminal and 23 C-terminal residues removed (mouse) (UniProt P97287); test: stopped-flow fluorescence kinetics; intrinsic fluorescence; protein and peptide mixed at near equal concentrations (1-0.25 uM), also pseudo-first-order conditions; 50 mM sodium phosphate, pH 7.0; fit to irreversible association (eq 3)
[13] = Mcl-1 urea unfolding by intrinsic tryptophan fluorescence; assay type: physicochemical, mouse; details: 1 µM Mcl-1, 25 °C, 50 mM PO4 pH 7.0, excitation 280 nm, emission 360 nm
Procedure: Figure S8. Mcl-1 remains folded up to 3.5 M urea. Mcl-1 fraction folded calculated
from the intrinsic tryptophan fluorescence of Mcl-1 (1 µM Mcl-1, 25 °C, 50 mM PO 4
pH 7.0, excitation at 280 nm, 10 nm pathlength, emission at 360 nm, 5nm pathlength).

[14] = target: the molecule itself; test: SEC + other: concentration dependent circular dichroism and denaturing SDS-PAGE; PUMA peptide alone at concentrations above 2 uM; reversible oligomerization
[15] = target: T2, truncated mouse Mcl-1 (induced myeloid leukemia cell differentiation protein), 151 N-terminal and 23 … (mouse, UniProt P97287 152-308); test: stopped-flow fluorescence kinetics; intrinsic fluorescence; protein and peptide mixed at near equal concentrations (1-0.25 uM), also pseudo-first-order conditions; 50 mM sodium phosphate, pH 7.0; fit to irreversible association (eq 3); details: both partners purified
[16] = target: T2, truncated mouse Mcl-1 (induced myeloid …); test: fluorescence kinetics after manual mixing; Mcl-1 and PUMA solutions manually mixed at nanomolar concentrations, fluorescence followed; fit to a model with association and dissociation; details: both partners purified

Question: Which results are given for “Ac-VEEEEWAREIGAQLRRIADDLNAQYERRRQEEQH-NH2 [PUMA peptide]”?
Answer: rate constant in the absence of long-range electrostatics k+basal ([1]; 10 mM MOPS, pH 7.0 (I = 0.004 M), ionic strength controlled with NaCl, fit to eq 4, a set to 6 Å): 6 (±1) × 10^5 M^–1 s^–1; kon ([1]; read-out: association rate constant k+ at high ionic strength): 100000 to 1e+06 M⁻¹ s⁻¹; helicity on binding Mcl-1 [2]: increased α-helicity relative to the two proteins in isolation; effect of urea on k+ ([3]; increasing urea, compared with prediction from viscosity k0η0/η): decreased by significantly more than what would be expected due to viscosity effects alone; m, gradient of ln(k+) against urea concentration ([3]; urea 0 upward, stopped-flow): 0.55 (±0.02) M^–1; concentration above which reversible oligomerization to highly α-helical structure occurs ([4]; concentration dependent CD, size-exclusion chromatography and denaturing SDS-PAGE): above 2 μM; concentration at which oligomers are visible on gel ([4]; denaturing SDS-PAGE): 10 to 100 µM; slope of viscosity plot (k0/k+ vs η/η0) [5]: 1.13 ± 0.02; fluorescence emission maximum [6]: 360 nm; dissociation of preformed Mcl-1 PUMA complex [7]: No solvent conditions could be found where preformed Mcl-1 PUMA complex could be observed to dissociate without unfolding the structured Mcl-1; affinity for folded Bcl-2 members relative to other BH3 peptides [8]: greater affinity than most other BH3 peptides; overall fluorescence change upon complex formation [9]: significant increase in overall fluorescence upon complex formation; effect of temperature on association [10]: An increase in temperature accelerates association; change in helicity with temperature ([11]; 1 µM, 10 mm pathlength cuvette, 15–60 °C, qualitative): less helical at higher temperatures; change in intrinsic helicity with ionic strength and urea ([11]; 1 µM, 10 mm pathlength cuvette, urea 0–3 M, I 4–214 mM, qualitative): showed little ionic strength dependence but was reduced in the presence of urea; residual helicity in the unbound state ([11]; mean residue ellipticity at 222 nm, 50 mM PO4, pH 7.0, 25 °C): ~20%

Question: Which kon [12] does the source give for “GB1-PUMA: 90 aa chain containing a soluble GB1 domain fused to the N-terminus of the 34 aa PUMA peptide (from UniProt Q99ML1 128-161)” here?
Answer: Its kon is 1.29e+07 M⁻¹ s⁻¹.

B1: Mcl-1: truncated mouse Mcl-1 (UniProt P97287) with 151 N-terminal residues and 23 C-terminal residues removed; GS added at N-terminus (protein)
chain: GSEDDLYRQSLEIISRYLREQATGSKDSKPLGEAGAAGRRALETLRRVGDGVQRNHETAFQGMLRKLDIKNEGDVKSFSRVMVHVFKDGVTNWGRIVTLISFGAFVAKHLKSVNQESFIEPLAETITDVLVRTKRDWLVKQRGWDGFVEFFHVQDLEGG
modifications: left off: His6, N-terminal, cleaved
notes: truncated mouse Mcl-1 (UniProt P97287) with 151 N-terminal residues and 23 C-terminal residues removed; GS added at N-terminus
Question: What does the source list for B1?
Answer: urea concentration up to which protein remains folded [13]: 3.5 M; fluorescence emission maximum [6]: 330 nm

Question: What does the source list for Ac-VEEEEWAREIGAQLRRIADDLNAQYERRRQEEQH-NH2 (peptide, UniProt Q99ML1 128-161, looked up) [Mouse PUMA peptide, residues 128-161, M144I, N-terminal acetylation and C-terminal amidation]?
Answer: binding result [14]: binds; kon [15]: 1.59e+07 M⁻¹ s⁻¹; Kd [16]: 0.1 nM; koff [16]: 0.0016 s⁻¹
